Where two headings read alike, the source gives them in different places.
Assays:
[1] = biological target: T1, MATE1 (Homo sapiens, UniProt Q96FL8); experiment: Uptake ratio in MATE1-overexpressing HEK293 cells vs empty vector (2.5 μM, 1 min, HPLC-MS/MS); format: cell-based
T1 sequence (Q96FL8 1-570): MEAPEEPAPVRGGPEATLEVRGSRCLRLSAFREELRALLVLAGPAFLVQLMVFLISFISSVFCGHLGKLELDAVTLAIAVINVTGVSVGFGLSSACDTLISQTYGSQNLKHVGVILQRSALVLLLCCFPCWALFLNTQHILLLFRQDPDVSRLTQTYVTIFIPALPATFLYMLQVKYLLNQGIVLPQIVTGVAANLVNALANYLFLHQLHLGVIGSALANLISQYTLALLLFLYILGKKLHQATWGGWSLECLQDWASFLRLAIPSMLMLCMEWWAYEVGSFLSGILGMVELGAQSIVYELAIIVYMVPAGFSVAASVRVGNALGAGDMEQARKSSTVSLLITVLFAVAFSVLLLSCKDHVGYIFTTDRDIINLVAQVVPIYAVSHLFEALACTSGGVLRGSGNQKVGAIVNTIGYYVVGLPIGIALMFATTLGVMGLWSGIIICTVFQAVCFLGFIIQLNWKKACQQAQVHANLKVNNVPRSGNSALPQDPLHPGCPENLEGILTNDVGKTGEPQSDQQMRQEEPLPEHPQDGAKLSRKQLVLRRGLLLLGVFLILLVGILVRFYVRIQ

[2] = biological target: MATE2K (Homo sapiens, UniProt Q86VL8); experiment: Uptake ratio in MATE2K-overexpressing HEK293 cells vs empty vector (2.5 μM, 1 min, HPLC-MS/MS); format: cell-based
MATE2K, sequence (Q86VL8 1-566 isoform Q86VL8-3): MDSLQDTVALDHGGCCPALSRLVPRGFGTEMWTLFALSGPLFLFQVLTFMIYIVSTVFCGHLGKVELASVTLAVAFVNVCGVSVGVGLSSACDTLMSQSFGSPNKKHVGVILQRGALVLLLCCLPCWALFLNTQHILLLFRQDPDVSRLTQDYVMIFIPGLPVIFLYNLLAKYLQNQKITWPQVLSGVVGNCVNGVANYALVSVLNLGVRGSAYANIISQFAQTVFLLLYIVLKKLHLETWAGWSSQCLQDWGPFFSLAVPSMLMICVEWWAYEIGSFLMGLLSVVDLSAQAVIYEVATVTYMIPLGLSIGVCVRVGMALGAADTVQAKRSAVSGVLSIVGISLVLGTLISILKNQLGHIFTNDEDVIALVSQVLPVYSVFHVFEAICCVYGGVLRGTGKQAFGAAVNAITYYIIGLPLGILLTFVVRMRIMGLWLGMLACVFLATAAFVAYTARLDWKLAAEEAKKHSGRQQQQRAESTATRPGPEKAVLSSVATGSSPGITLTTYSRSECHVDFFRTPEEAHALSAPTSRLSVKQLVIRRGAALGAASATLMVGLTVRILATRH

[3] = fold uptake over empty vector, 2.5 μM, 1 min
[4] = mean ratio of uptake in MATE1-overexpressing HEK293 cells vs empty vector, 2.5 μM, 1 min
[5] = mean ratio of uptake in MATE2K-overexpressing HEK293 cells vs empty vector, 2.5 μM, 1 min
[6] = uptake ratio MATE1-overexpressing vs empty-vector HEK293 cells, 2.5 μM, 1 min, mean
[7] = uptake ratio MATE2K-overexpressing vs empty-vector HEK293 cells, 2.5 μM, 1 min, mean
[8] = fold uptake over empty vector, 2.5 μM, 1 min, listed as reproterol

## Cc1cc(C(C)(C)C)c(O)c(C)c1CC1=NCCN1 [Oxymetazoline]
[1]; [3]
  MATE1 ratio: 5.22
[2]; [3]
  MATE2K ratio: 2.29

## Nc1c(Br)cc(Br)cc1CN[C@H]1CC[C@H](O)CC1 [Ambroxol]
[1]; [3]
  MATE1 ratio: 1.00
[1]; [4]
  MATE1 (uptake ratio): 1
[2]; [3]
  MATE2K ratio: 1.32
[2]; [5]
  MATE2 (uptake ratio): 1.32

## CNCCCC1(c2ccc(F)cc2)OCc2cc(C#N)ccc21 (centres unmarked) [N-Desmethylcitalopram]
[1]
  MATE1 ratio: 1.09
[2]
  MATE2K ratio: 1.09

## NCCc1cc(O)c(O)cc1O [6-Hydroxydopamine]
[1]
  MATE1 (uptake ratio): 1.05
  MATE1 ratio: 1.05
[2]
  MATE2 (uptake ratio): 1.24
  MATE2K ratio: 1.24

## CC(NC(C)(C)CO)C(=O)c1cccc(Cl)c1 (centres unmarked) [Hydroxybupropion]
[1]
  MATE1 ratio: 1.09
[2]
  MATE2K ratio: 1.51

## CC(=O)Oc1c(C)cc(OCC(O)CNC(C)C)c(C)c1C (centres unmarked) [Metipranolol]
[1]; [3]
  MATE1 ratio: 1.21
[2]; [3]
  MATE2K ratio: 1.17

## Clc1ccc(COC(Cn2ccnc2)c2ccc(Cl)cc2Cl)c(Cl)c1 (centres unmarked) [Miconazole]
[1]; [3]
  MATE1 ratio: 1.33
[2]; [3]
  MATE2K ratio: 1.50

## C[C@@H]1CCN(C(=O)CC#N)C[C@@H]1N(C)c1ncnc2[nH]ccc12 [Tofacitinib]
[1]; Table S1, 2.5 μM, 1 min
  MATE1 ratio in this study: 1.36
[1]; [6]
  MATE1: 1.36
[2]; Table S1, 2.5 μM, 1 min
  MATE2K ratio in this study: 1.41
[2]; [7]
  MATE2: 1.41

## NC(=O)NCCC[C@H](N)C(=O)O [Citrulline]
[1]
  MATE1 (uptake ratio): 0.77
  MATE1 ratio: 0.77
[2]
  MATE2 (uptake ratio): 1.26
  MATE2K ratio: 1.26

## COC(=O)[C@@H]1[C@H]2C[C@H]3c4[nH]c5ccccc5c4CCN3C[C@@H]2CC[C@@H]1O [Yohimbin]
[1]; [6]
  MATE1: 1.11
[2]; [7]
  MATE2: 1.35

## CNC[C@H](O)c1cccc(O)c1 [Phenylephrine (L), Phenylephrine]
[1]; [3]
  MATE1 ratio: 18.71
[2]; [3]
  MATE2K ratio: 2.15

## CCc1cc2c(cc1CC)CC(NC[C@H](O)c1ccc(O)c3[nH]c(=O)ccc13)C2 [Indacaterol]
[1]; [3]
  MATE1 ratio: 1.98
[2]; [3]
  MATE2K ratio: 1.88

## CN(CC(=O)O)C(=N)N [Creatine]
[1]
  MATE1 ratio: 1.01
[2]
  MATE2K ratio: 1.07

## NC(=O)OCC(COC(N)=O)c1ccccc1 [Felbamate]
[1]; [3]
  MATE1 ratio: 0.97
[2]; [3]
  MATE2K ratio: 0.94

## Cn1c(=O)c2c(ncn2CCCNCC(O)c2cc(O)cc(O)c2)n(C)c1=O (centres unmarked) [Reproterol]
[1]; [3]
  MATE1 ratio: 5.18
[1]; [8]
  MATE1 ratio: 5.2
[1]; [6]
  MATE1: 5.18
[2]; [3]
  MATE2K ratio: 17.96
[2]; [8]
  MATE2K ratio: 17.9
[2]; [7]
  MATE2: 17.96

## CC(=O)Nc1ccc(O)cc1 [Paracetamol]
[1]; [3]
  MATE1 ratio: 1.00
[2]; [3]
  MATE2K ratio: 0.99

## CN(C)CCc1c[nH]c2ccc(CS(=O)(=O)N3CCCC3)cc12 [Almotriptan]
[1]; [3]
  MATE1 ratio: 4.40
[1]; [4]
  MATE1 (uptake ratio): 4.4
[2]; [3]
  MATE2K ratio: 2.36
[2]; [5]
  MATE2 (uptake ratio): 2.36

## NCc1ccc(O)cc1
[1]
  MATE1 ratio: 1.48
[2]
  MATE2K ratio: 1.09

## COc1ccccc1OCCNCC(O)COc1cccc2[nH]c3ccccc3c12 [Carvedilol (S), Carvedilol]
[1]; [3]
  MATE1 ratio: 1.19
[1]; [4]
  MATE1 (uptake ratio): 1.19
[2]; [3]
  MATE2K ratio: 1.18
[2]; [5]
  MATE2 (uptake ratio): 1.18

## C[C@@H]1Cc2c(Cl)cc(C(=O)N[C@@H](Cc3ccccc3)C(=O)O)c(O)c2C(=O)O1 [Ochratoxin A]
[1]
  MATE1 ratio: 3.12
  substrate of MATE1: substrates of MATE1
[2]
  MATE2K ratio: 1.28

## Nc1ccc2[nH]ncc2c1 [5-Aminoindazole]
[1]; [3]
  MATE1 ratio: 0.99
[1]; [4]
  MATE1 (uptake ratio): 0.99
[2]; [3]
  MATE2K ratio: 0.73
[2]; [5]
  MATE2 (uptake ratio): 0.73

## C[N+]1(C)CCN(c2ccccc2)CC1 [Dimethylphenylpiperazinium]
[1]
  MATE1 ratio: 29.06
[2]
  MATE2K ratio: 4.30

## Oc1ccc(CC2NCCc3cc(O)c(O)cc32)cc1 (centres unmarked) [Higenamine]
[1]; [3]
  MATE1 ratio: 14.55
[2]; [3]
  MATE2K ratio: 11.27

## CNCC(O)c1ccccc1 (centres unmarked) [Halostachine]
[1]; [3]
  MATE1 ratio: 1.41
[2]; [3]
  MATE2K ratio: 1.52

## CC(C)NC[C@H](O)COc1ccc(O)cc1 [Prenalterol]
[1]; [3]
  MATE1 ratio: 5.01
[2]; [3]
  MATE2K ratio: 1.62

## COc1ccc(CCNC[C@H](O)c2ccc(O)cc2)cc1OC [Denopamine (R), Denopamine]
[1]; [3]
  MATE1 ratio: 2.32
[2]; [3]
  MATE2K ratio: 1.69

## [H]/N=C(\N/C(=N/[H])NCCCCCCNC(=N)NC(=N)Nc1ccc(Cl)cc1)Nc1ccc(Cl)cc1 [Chlorhexidine]
[1]; [3]
  MATE1 ratio: 1.08
[1]; [4]
  MATE1 (uptake ratio): 1.08
[2]; [3]
  MATE2K ratio: 0.99
[2]; [5]
  MATE2 (uptake ratio): 0.99

## CN(C)c1ccc(C(=C2C=CC(=[N+](C)C)C=C2)c2ccc(N(C)C)cc2)cc1 [Gentian violet]
[1]; [3]
  MATE1 ratio: 1.40
[2]; [3]
  MATE2K ratio: 1.05

## COc1ccc(CC(C)(C)NC[C@H](O)c2cc(O)cc3c2OCC(=O)N3)cc1 [Olodaterol]
[1]; [3]
  MATE1 ratio: 3.34
[2]; [3]
  MATE2K ratio: 6.19

## CCCCC[C@H](O)/C=C/[C@@H]1[C@@H](C/C=C\CCCC(=O)O)[C@@H](O)C[C@H]1O [Prostaglandin F2alpha]
[1]; [3]
  MATE1 ratio: 1.41
[1]; [6]
  MATE1: 1.41
[2]; [3]
  MATE2K ratio: 0.92
[2]; [7]
  MATE2: 0.92

## Cc1cc(O)cc(C)c1OCC(C)N (centres unmarked) [4-Hydroxymexiletine]
[1]; [3]
  MATE1 ratio: 1.67
[1]; [4]
  MATE1 (uptake ratio): 1.67
[2]; [3]
  MATE2K ratio: 1.42
[2]; [5]
  MATE2 (uptake ratio): 1.42

## O=C(NCCNCC(O)COc1ccc(O)cc1)N1CCOCC1 (centres unmarked) [Xamoterol]
[1]; [6]
  MATE1: 7.62
[2]; [7]
  MATE2: 6.13

## Cc1ncc(CO)c(C=O)c1O [Pyridoxal]
[1]; [3]
  MATE1 ratio: 0.97
[1]; [6]
  MATE1: 0.97
[2]; [3]
  MATE2K ratio: 1.14
[2]; [7]
  MATE2: 1.14

## CN(C)CCC=C1c2ccccc2COc2ccccc21 [Doxepin (E), Doxepin]
[1]; [3]
  MATE1 ratio: 1.26
[2]; [3]
  MATE2K ratio: 1.08

## CC[N+](CC)(CC)CC [Tetraethylammonium]
[1]
  MATE1: 25.44
[2]
  MATE2: 6.73

## Oc1ccc2c3c1O[C@H]1[C@H](O)CC[C@@]4(O)[C@@H](C2)N(CC2CC2)CC[C@]314 [6-beta-Naltrexol]
[1]
  MATE1 (uptake ratio): 1.2
  MATE1 ratio: 1.20
[2]
  MATE2 (uptake ratio): 1.2
  MATE2K ratio: 1.20

## NCCc1cccc(O)c1 [m-Tyramine]
[1]; [3]
  MATE1 ratio: 8.90
[2]; [3]
  MATE2K ratio: 1.31

## C[N+]12CCC(CC1)C(OC(=O)C(O)(c1ccccc1)c1ccccc1)C2 (centres unmarked) [Clidinium]
[1]; [3]
  MATE1 ratio: 16.18
[1]; [4]
  MATE1 (uptake ratio): 16.18
[2]; [3]
  MATE2K ratio: 1.79
[2]; [5]
  MATE2 (uptake ratio): 1.79

## N=C(N)NC(=O)Cc1c(Cl)cccc1Cl [Guanfacine]
[1]; [3]
  MATE1 ratio: 1.60
[2]; [3]
  MATE2K ratio: 1.37

## CNCC/C=C1/c2ccccc2CC(O)c2ccccc21 (centres unmarked) [10-OH-Nortriptyline]
[1]
  MATE1 (uptake ratio): 1.17
  MATE1 ratio: 1.17
[2]
  MATE2 (uptake ratio): 1.14
  MATE2K ratio: 1.14

## OCCN1CCN(CCCN2c3ccccc3Sc3ccc(Cl)cc32)CC1 [Perphenazine]
[1]; [3]
  MATE1 ratio: 1.09
[2]; [3]
  MATE2K ratio: 0.94

## Clc1ccc2c(c1)C(N1CCNCC1)=Nc1ccccc1O2 [Amoxapine]
[1]; [3]
  MATE1 ratio: 1.32
[1]; [4]
  MATE1 (uptake ratio): 1.32
[2]; [3]
  MATE2K ratio: 1.33
[2]; [5]
  MATE2 (uptake ratio): 1.33
